Activity calls are given as the source filed them. No cut-off for these calls is given here.
Key:
[1] = test system: MC-38; experiment: Antitumor activity in BDF1 mouse bearing colon 38 cells assessed as cell death at 70 mg/kg, iv daily 4 times for 3 days; format: functional
[2] = test system: MC-38; experiment: Antitumor activity in BDF1 mouse bearing colon 38 cells assessed as tumor growth inhibition at 70 mg/kg, iv daily 4 times for 3 days; format: functional; conditions: MC-38, 72 h, read-out: TGI
[3] = test system: MC-38; experiment: Antitumor activity in BDF1 mouse bearing colon 38 cells assessed as maximum weight loss at 70 mg/kg, iv daily 4 times for 3 days; format: functional
[4] = test system: MC-38; experiment: Antitumor activity in BDF1 mouse bearing colon 38 cells assessed as tumor growth inhibition at 100 mg/kg, iv daily 4 times for 3 days; format: functional; conditions: MC-38, 72 h, read-out: TGI
[5] = test system: MC-38; experiment: Antitumor activity in BDF1 mouse bearing colon 38 cells assessed as maximum weight loss at 100 mg/kg, iv daily 4 times for 3 days; format: functional
[6] = test system: MC-38; experiment: Antitumor activity in BDF1 mouse bearing colon 38 cells assessed as cell death at 100 mg/kg, iv daily 4 times for 3 days; format: functional
[7] = test system: L1210; experiment: Cell cycle arrest in mouse L1210 cells by accumulation at G2/M phase at 0.1 ug/ml after 24 hrs by flow cytometry; format: functional, cell-based
[8] = test system: L1210; experiment: Cell cycle arrest in mouse L1210 cells by accumulation at S phase at 0.1 ug/ml after 24 hrs by flow cytometry; format: functional, cell-based
[9] = test system: L1210; experiment: Antitumor activity against mouse L1210 cells; format: functional, cell-based

## O=c1[nH]cc(F)c(=O)[nH]1 [FLUOROURACIL]
[1]
  LCK: 1.1
[2]
  inhibition in vivo at 70 mg/kg: 95%
[3]
  Activity: -7%

## CCc1c2c(nc3ccc(OC(=O)N4CCC(N5CCCCC5)CC4)cc13)C1CC3=C(COC(=O)[C@]3(O)CC)C(=O)N1C2 (some centres undefined)
[4]
  inhibition in vivo at 100 mg/kg: 96%
[5]
  Activity: -7%
[6]
  LCK: 1.7

## Cc1c[nH]c2c1[C@@]13C[C@@H]1CN(C(=O)c1cc4cc(NC(=O)c5cc6ccccc6o5)ccc4[nH]1)C3=CC2=O
[7]
  Activity: Active
[8]
  Activity: Active

## CCCCCC(=O)O [HEXANOATE]
[9]
  IC50: 4.6 nM
